Source: US20120149647A1, “Methods for Assessing the Efficacy of Gemcitabine or Ara-C Treatment of Cancer Using Human Antigen R Levels” (priority 2009, published 2012)
“Also recorded” adds a separate entry of the source.

Experiments:
[1] = test system: pancreatic cancer cell lines MiaPaca2, PL-5, and Hs766t; assay: Drug sensitivity assay (PicoGreen cell survival), HuR-overexpressing vs control lines; format: cell-based; conditions: PicoGreen cell survival after 5-7 days of drug, HuR vs empty vector/control cells
From the text: HuR cDNA sequence was cloned into the pcDNA 3.1. Zeo vector (Invitrogen) for stable transfection of pancreatic cancer cell lines MiaPaca2, PL-5, and Hs766t. Pooled cells remained under selection media containing Zeocin (Invitrogen) for several months after transfection. Mia.HuR, PL5.HuR, and Hs766t. HuR denote link overexpressing lines; Mia.EV, PL5.EV, and Hs766t denote empty vector or control lines. HuR and control siRNA sequences and transfection conditions were as described.
Mia.HuR, Mia.EV, Hs766t.HUR, Hs766t, and PL5.HuR, PL5.EV cells were seeded (1000 cells/well) in 96-well plates and treated with Etoposide, 5-Fluorouracil, Cis-platin, Staurosporine, Nocodazole, Colcemid, Ara-C (Sigma), and GEM (Gemzar, Eli-Lilly, Indianapolis, Ind.) for 6-7 days. After treatment, cells were washed with PBS and lysed with 100 μL of water/well; cell viability was quantified by staining of double-stranded DNA with QuantiT™ PicoGreen (Invitrogen) and analyzed with a TECAN SpectraFluor.

[2] = test system: HuR in MiaPaCa2 cells; assay: HuR levels and localization by immunoblot and immunofluorescence; format: cell-based; conditions: parental MiaPaCa2 cells, GEM treatment
Protocol: Cells were plated on LabTek II™ Chamber slides (Fisher Scientific) and fixed in 3% paraformaldehyde (20 min, RT). Cells were washed with PBS and permeabilized using 0.5% Triton X-100/1% normal goat serum (Vector Laboratories) in PBS (15 min). After washes in 1% goat serum/PBS, cells were incubated (1:50 dilution, 1 hr, RT) with mouse anti-HuR (Santa Cruz) or anti-deoxycytidine kinase (dCK, Abnova) primary antibodies. After washes in PBS, cells were incubated for 1 hr with goat anti-mouse secondary antibody (1:400, Alexa Fluor 647, Molecular Probes). Nuclei were stained with DAPI and cells were evaluated under a Zeiss LSM-510 Confocal Laser Microscope.
Whole-cell, cytoplasmic, and nuclear lysates were prepared as described (Kuwano Y, et al. Mol Cell Biol 2008; 28:4562-75), and protein was size-fractionated by SDS-PAGE (10% acrylamide). Membranes were blocked for 1 h in 5% Milk/TBS-T and incubated overnight with monoclonal antibodies (Santa Cruz) recognizing HuR, dCK, the cytoplasmic marker α-Tubulin, or the nuclear marker hnRNP. Membranes were washed with TBS-T and incubated with secondary antibodies; and the resulting signals were visualized by chemiluminescence (Millipore). Total protein was visualized with Fast Green (USB).

[3] = test system: HuR association with dCK mRNA in MiaPaCa2 cells; assay: RNP IP assay of HuR association with dCK mRNA; dCK protein and mRNA levels; format: cell-based; conditions: GEM treatment
Protocol: MiaPaCa2 cells were treated with 4 μM GEM and collected 48 hours later. For biotin pulldown analysis (Kuwano Y, et al. Mol Cell Biol 2008; […]), cytoplasmic extracts were isolated using, the NE-PER® Nuclear and Cytoplasmic Extraction Reagents Kit (Pierce Biotechnology) Probes for biotin pull-down analysis were synthesized as described (Kuwano Y, et al. Mol Cell Biol 2008; […] using the following PCR primers (sense and antisense, respectively) containing the T7 RNA polymerase promoter sequence […] (T7) (SEQ ID NO: 1): (T7)[…] (SEQ ID NO: 2) and […] (SEQ ID NO: 3) for dCK 3′UTR; (T7)[…] (SEQ ID NO: 4) and […] (SEQ ID NO: 5) for GAPD 3′UTR (Casolaro V, et al. J Allergy Clin Immunol 2008; 121:853-9 e4) (see supplemental figure for depiction of UTR positions). Biotinylated probes were synthesized using the MAXIscript T7 kit (Ambion) and Biotinylated dCTP (Enzo Life Sciences). For immunoprecipitation of endogenous RNA-protein complexes (RNP IP) from cytoplasmic (450 μg) extracts, reactions were carried out as described (Kuwano Y, et al. Mol Cell Biol 2008; 28:4562-75), using protein A Sepharose beads (Sigma) that were precoated with 30 μg of either mouse immunoglobulin G1 (IgG1; BD Biosciences), or anti-HuR antibodies. […] GAPDH and dCK transcripts were quantified by real-time PCR analysis using each specific primers: […] […]

[4] = test system: pancreatic ductal adenocarcinoma; assay: Overall survival of resected PDA patients receiving GEM, stratified by cytoplasmic HuR; format: in vivo; conditions: for adjusted hazard ratio of low to high HuR: adjusted for age, sex, Xeloda use and radiation therapy
Protocol: HuR immunostaining was performed on 32 resected PDA specimens from the Thomas Jefferson University pathology archives after IRB approval. All patients received GEM, alone or in combination with XELODA® (Capecitabine) (2 patients), radiation therapy (8 patients) or both (2 patients). The experienced pancreatic pathologist (A.K.W.) reviewed all cases in a blinded fashion and classified the tumors as well differentiated (n=6), moderately differentiated (n=22), or poorly differentiated […]. For each case, representative sections were selected for immunohistochemical analysis of HuR cytoplasmic and nuclear staining patterns, which were scored using the following scale: 0 for no staining, 1 for weak and/or focal (<10% of the cells) staining; 2 for moderate or strong, staining (10-50% of the cells); and 3 for moderate or strong staining (>50% of the cells). Combined scores 0 and 1 represented low expression, while combined scores 2 and 3 represented high expression.

[5] = test system: Mia.EV and Mia.HuR cell lines; assay: Cell cycle analysis and apoptosis assay (flow cytometry); format: cell-based; conditions: 0.03 μM GEM, 48 h
Protocol: Mia.EV and Mia.HuR cell lines were either left untreated or treated with 0.03 μM GEM for 48 h. For cell cycle analysis, cells were then fixed in 100% ethanol, and stained with a propidium iodide solution containing RNAse A (Sigma Aldrich). For apoptosis assays, cells were resuspended at 10^6 cells/mL and incubated in Annexin V and Propidium Iodide, following the manufacturers' protocol (FITC Annexin V, BD Pharmigen). Both assays were analyzed by flow cytometry.

[6] = patients receiving GEM, listed as gemcitabine

SMILES	sensitivity of HuR-overexpressing cell lines compared with control lines [1]	cytoplasmic HuR levels [2]	whole-cell HuR levels [2]	overall dCK protein or mRNA levels [3]	HuR's association with dCK mRNA ([3]; RNP IP)	hazard ratio of low to high HuR, univariate Cox regression ([4]; patients receiving GEM)	adjusted hazard ratio of low to high HuR ([4]; patients receiving GEM)	adjusted hazard ratio of low to high HuR [4, 6]	hazard ratio of low to high HuR, univariate Cox regression [4, 6]	increase in risk of death, low vs high HuR levels [4, 6]	median overall survival time for patients on GEM ([4]; resected PDA patients, GEM alone or combined)	apoptosis of HuR overexpressing cells compared to control cells [5]	cell cycle distribution of HuR overexpressing cells compared to control cells [5]	sensitivity of HuR-overexpressing cell lines compared with control lines ([1]; listed as gemcitabine)
Nc1ccn([C@@H]2O[C@H](CO)[C@@H](O)[C@@H]2O)c(=O)n1 [Ara-C, Cytarabine]	selectively more sensitive; also recorded: hypersensitive													
Nc1ccn(C2OC(CO)C(O)C2(F)F)c(=O)n1 (stereo not drawn) [GEM, 4-amino-1-[3,3-difluoro-4-hydroxy-5-(hydroxymethyl)tetrahydrofuran-2-yl]-1H-pyrimidin-2-one]	more sensitive	significantly increased	did not alter	did not alter	significantly increased	4.48	7.34	5.04	3.36	5 fold	619 days	increased apoptosis	selective enrichment in the S-phase	strikingly hypersensitive
